Results on 20 compounds are retold here after ChEMBL document CHEMBL4118170, “Alkylsulfanyl analogs as potent α2δ ligands” (Bioorg Med Chem Lett, 2018).

The target of series [1] is Voltage-dependent calcium channel subunit alpha-2/delta-1 (Homo sapiens) (UniProt P54289). Description: Displacement of [3H]gabapentin from human voltage-gated Ca2+ channel alpha2delta1 subunit expressed in HEK293A cell membranes after 30 mins by liquid scintillation counting method. In general terms: Displacement assays read how much labelled ligand stays bound in the presence of the test substance.

For series [2], the system named is Mus musculus. The series can be described thus: Analgesic activity in db/db mouse mechanical hyperalgesia model assessed as reversal of mechanical hyperalgesia at 100 mg/kg, po pretreated for 2 hrs by Von Frey test relative to control. Format: functional.
Series [3] is described as follows: Cmax in mouse at 10 mg/kg, po or 5 mg/kg, iv. The series is classed as ADME, organism-based. As to conditions: in vivo.
Series [4] is described as follows: Half life in mouse at 10 mg/kg, po or 5 mg/kg, iv. The series is classed as ADME, organism-based. Particulars: in vivo.
The test system of series [5] is Mus musculus. The series can be described thus: AUC in mouse at 10 mg/kg, po or 5 mg/kg, iv. The series is classed as ADME, organism-based. As to conditions: in vivo.
A short description of series [6]: Clearance in mouse at 10 mg/kg, po or 5 mg/kg, iv. Format: ADME, organism-based. As to conditions: in vivo.
The nature of series [7]: Oral bioavailability in mouse at 10 mg/kg. As to conditions: in vivo. The series is classed as ADME, organism-based.
Series [8] concerns Rattus norvegicus. Description: Analgesic activity in STZ-induced diabetic rat model assessed as pain threshold AUC (0 to 8 hrs) at 10 mg/kg, po by Von Frey test. The series is classed as functional, organism-based. Also on record: dose 10 mg/kg, time < 8 hr.
Series [9] concerns Rattus norvegicus. Description: Analgesic activity in STZ-induced diabetic rat model assessed as pain threshold AUC (0 to 8 hrs) at 30 mg/kg, po by Von Frey test. Format: functional, organism-based. Also on record: time < 8 hr, dose 30 mg/kg.
Series [10] concerns Mus musculus. Description: Effect on motor coordination in mouse at 30 mg/kg, po measured over 120 secs at 2 hrs post drug administration by rota rod test. The series is classed as ADME, organism-based. As to conditions: in vivo.
Series [11] relates to Mus musculus. Description: Effect on motor coordination in mouse at 100 mg/kg, po measured over 120 secs at 2 hrs post drug administration by rota rod test. The series is classed as ADME, organism-based. Particulars: in vivo. Background: In the rotarod test animals must keep their balance on a rotating rod.
Series [12] concerns Rattus norvegicus. Description: Analgesic activity in STZ-induced diabetic rat model assessed as pain threshold AUC (0 to 8 hrs) at 50 mg/kg, po by Von Frey test. The series is classed as functional, organism-based. Also on record: time < 8 hr, dose 50 mg/kg.

Voltage-dependent calcium channel subunit alpha-2/delta-1 (Homo sapiens), sequence (P54289 25-956 limits assumed): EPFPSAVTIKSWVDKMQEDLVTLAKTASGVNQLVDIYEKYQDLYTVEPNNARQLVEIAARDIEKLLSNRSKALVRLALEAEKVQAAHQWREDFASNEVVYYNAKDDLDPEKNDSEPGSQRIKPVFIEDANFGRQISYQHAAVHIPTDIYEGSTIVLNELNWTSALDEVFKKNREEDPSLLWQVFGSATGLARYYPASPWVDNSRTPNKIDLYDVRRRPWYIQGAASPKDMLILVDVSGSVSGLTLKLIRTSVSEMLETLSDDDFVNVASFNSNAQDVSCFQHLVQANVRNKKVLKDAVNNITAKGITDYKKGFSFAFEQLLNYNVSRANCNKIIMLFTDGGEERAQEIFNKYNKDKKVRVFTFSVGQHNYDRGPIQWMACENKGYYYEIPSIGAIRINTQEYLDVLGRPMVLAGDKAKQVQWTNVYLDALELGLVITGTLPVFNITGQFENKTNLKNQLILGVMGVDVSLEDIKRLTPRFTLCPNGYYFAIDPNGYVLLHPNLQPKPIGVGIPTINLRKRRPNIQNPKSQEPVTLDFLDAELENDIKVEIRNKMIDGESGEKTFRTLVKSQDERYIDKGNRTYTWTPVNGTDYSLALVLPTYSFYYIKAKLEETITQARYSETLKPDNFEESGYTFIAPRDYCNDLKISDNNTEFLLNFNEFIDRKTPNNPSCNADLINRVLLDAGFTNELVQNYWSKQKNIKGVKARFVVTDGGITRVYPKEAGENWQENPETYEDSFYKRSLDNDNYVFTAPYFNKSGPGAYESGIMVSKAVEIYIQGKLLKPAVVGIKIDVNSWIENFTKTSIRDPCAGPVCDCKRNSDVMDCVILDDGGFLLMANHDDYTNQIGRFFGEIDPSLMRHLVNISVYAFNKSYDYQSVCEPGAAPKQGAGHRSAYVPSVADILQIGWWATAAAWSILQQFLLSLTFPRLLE
Voltage-dependent calcium channel subunit alpha-2/delta-1 (Homo sapiens), sequence (P54289 957-1103 limits assumed): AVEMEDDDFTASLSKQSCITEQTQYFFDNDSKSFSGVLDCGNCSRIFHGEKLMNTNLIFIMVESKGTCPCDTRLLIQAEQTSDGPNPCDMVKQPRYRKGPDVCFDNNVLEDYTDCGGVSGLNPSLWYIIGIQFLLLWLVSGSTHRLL

In the case of `CCS[C@@H](C)C[C@H](CN)CC(=O)O`, the displacement potency (concentration) in series [1] was determined as 20 nM. The Activity with Mus musculus [2] is reported as 90%; with Mus musculus [10], “Toxic”; with Mus musculus [11], “Toxic”. For the same compound, the Cmax (usually the highest concentration seen after dosing) in series [3] was determined as 5610 ng/mL. Moreover, the half-life – broadly, how long it takes for the measured level to halve – in series [4] was 2.09 h. Also, the AUC was found to be 8140 ng·h/mL in the series on Mus musculus [5], 6.3 g·h in the series on Rattus norvegicus [8] and 19 g·h with Rattus norvegicus [9]. For the same compound, the clearance in series [6] was found to be 5.78 mL/min/kg. In addition, the bioavailability (as a rule, dose-corrected exposure relative to a reference, in per cent) in series [7] is 28%.
`CS[C@H](C)C[C@@H](CN)CC(=O)O`: the displacement potency (concentration) in series [1] stood at 720 nM. Also, the Activity in the series with Mus musculus [2] was found to be 3%. In series [3], this compound yielded a Cmax of 3590 ng/mL. In addition, the half-life in [4] was 4.42 h. This compound showed an AUC with Mus musculus [5] of 5800 ng·h/mL. The compound further had a clearance in series [6] of 31.7 mL/min/kg. The same compound gave a bioavailability in series [7] of 100%.
As for `COCC(CN)CC(=O)O` (racemic), in series [1], the displacement potency (concentration) stood at 3200 nM.
Consider `CSC(C)CC(CN)CC(=O)O` (mixture of isomers), for which, in [1], the displacement potency (concentration) was found to be 170 nM. For the same compound, the Activity in the series with Mus musculus [2] is given as 64%.
In the case of `CS[C@H](C)C[C@H](CN)CC(=O)O`, in series [1], the displacement potency (concentration) is 620 nM. The Activity in the series on Mus musculus [2] was found to be 4%. In series [3], the concentration peaked (Cmax) at 6220 ng/mL. In [4], the half-life was 4.52 h. This compound also returned an AUC in the series with Mus musculus [5] of 9980 ng·h/mL. In series [6], this compound came in with a clearance of 17.5 mL/min/kg. The bioavailability in series [7] is 100%.
`CC(C)SCC(CN)CC(=O)O` (centres undefined): the displacement potency (concentration) in series [1] was 19000 nM.
In the case of `COC(C)CC(CN)CC(=O)O` (centres undefined), the displacement potency (concentration) in [1] was found to be 410 nM. The Activity in the series on Mus musculus [2] is 4%.
In the same order, the values of `CSCCC(CN)CC(=O)O` (racemic) are 480 nM and 12%.
In the same order, the values of `COCC(C)C(CN)CC(=O)O` (centres undefined) are 160 nM and 10%.
In the same order, the values of `CCOC(C)CC(CN)CC(=O)O` (centres undefined) are 970 nM and 22%.
For the compound `CCSC(C)CC(CN)CC(=O)O` (centres undefined), the displacement potency (concentration) in [1] amounted to 200 nM. For the same compound, the Activity with Mus musculus [2] is given as 43%.
In the same order, the values of `CSCC(C)C(CN)CC(=O)O` (centres undefined) are 150 nM and 2%.
The matching figures for `COCCC(CN)CC(=O)O` (racemic): 240 nM and 17%.
In the case of `CS[C@@H](C)C[C@@H](CN)CC(=O)O`, in series [1], the displacement potency (concentration) came to 290 nM. In addition, in the series on Mus musculus [2], the Activity stood at 0%. This compound displayed a Cmax in series [3] of 1610 ng/mL. The same compound gave a half-life in series [4] of 5.8 h. The compound also yielded an AUC with Mus musculus [5] of 3020 ng·h/mL. Besides, the clearance in [6] turned out to be 23.8 mL/min/kg. Further, in series [7], the bioavailability was 45%.
Take `CSCC(CN)CC(=O)O` (racemic): the displacement potency (concentration) in series [1] was 1000 nM. Further, the Activity with Mus musculus [2] is 9%.
Regarding `CC(C)C[C@H](CN)CC(=O)O` [PREGABALIN], the displacement potency (concentration) in series [1] was 39 nM. The Activity with Mus musculus [2] is 98%; in the series on Mus musculus [10], “Toxic”; with Mus musculus [11], “Toxic”. The compound also came in with a Cmax in series [3] of 1340 ng/mL. Further, in series [4], the half-life is 2.54 h. For the same compound, the values for the AUC with Mus musculus [5], in the series on Rattus norvegicus [8] and in the series with Rattus norvegicus [9] were 18900 ng·h/mL, 5.8 to 17 g·h and 18 to 27 g·h, respectively. In series [6], this compound displayed a clearance of 7.77 mL/min/kg. The compound further yielded a bioavailability in [7] of 88%.
For the compound `CS[C@@H](C)C[C@H](CN)CC(=O)O`, the displacement potency (concentration) in series [1] was 48 nM. Also, the results for the Activity in the series with Mus musculus [2], in the series with Mus musculus [10] and in the series on Mus musculus [11] were 80%, “Non-Toxic” and “Toxic”, respectively. The concentration in series [3] peaked (Cmax) at 5190 ng/mL. The compound further gave a half-life in series [4] of 2.4 h. Also, the AUC in the series on Mus musculus [5] was determined as 12500 ng·h/mL; with Rattus norvegicus [12], 18 g·h; in the series with Rattus norvegicus [9], 10 g·h. Moreover, in series [6], the clearance stood at 17.6 mL/min/kg. Also, in series [7], the bioavailability was 100%.
As to `CSC(C)C(CN)CC(=O)O` (centres undefined), the displacement potency (concentration) in series [1] was 240 nM. Moreover, the Activity with Mus musculus [2] was determined as 9%.
The matching figures for `CCS[C@H](C)C[C@H](CN)CC(=O)O`: 290 nM and 3%.
Consider `CCSCC(CN)CC(=O)O` (racemic), for which the displacement potency (concentration) in series [1] was 1900 nM.
